“And” between values parts separate entries of the source, which are not always exact repeats. Identical values can stand only once.
What was measured:
[1] = tested on: senile plaques and neurofibrillary tangles; assay: In vitro autoradiographic binding to triple transgenic mouse sagittal brain slices; parameters: species or system triple transgenic mice; conditions: for selectivity of binding to the plaques: triple transgenic mice brain slices
Protocol: (§1) In vitro studies of ^18F-FBM were carried out on coronal and horizontal mice brain slices (both wild-type and Tg 2576), which were obtained on a Leica 1850 cryotome. Mice brain-region slices (hippocampus and frontal cortex of 24-month old wild-type and Tg 2576; 10 μm thick) were preincubated in buffer (0.9% saline) for 10 minutes. Subsequently, the mice brain slices were incubated with ^18F-FBM (6.8 μCi/cc) in 0.9% saline, pH 7.4 at 37° C. for 1 hr. For nonspecific binding, brain slices were treated with 10 μM FDDNP. Slices were washed with cold millipore water, 70% alcohol, 90%, alcohol, 70% alcohol, and water for 2, 1, 1, 1, and 1 min, respectively. The slices were air dried then exposed overnight onto a phosphor screen and read by the Phosphor Autoradiographic Imaging System/Cyclone Storage Phosphor System (Packard Instruments Co). Regions of interest were drawn on various regions of the slices and the extent of binding of ^18F-FBM was computed as DLU/mm^2 using the OptiQuant acquisition and analysis program (Packard Instruments Co).
(§2) Similar experiments were carried out in adjacent slices using ^18F-FDDNP (7.8 μCi/cc) for comparison. For evaluating the amount of plaque present in the brain slices, adjacent brain slices were also stained for the peptide fragment Aβ17-24 which is representative of the amount of Aβ40 and Aβ42 plaque aggregates using reported 4G8 immunostaining methods of UCI-Institute for Brain Aging and Dementia (Head E, Moffat K, Das P, Sarsoza E, Poon W W, Landsberg G, Cotman C W, Muphy M P. (2005). Beta-amyloid deposition and tau phosphorylation in clinically characterized aged cats. Neurobiology of Aging 26(5): 749-763). Beta-amyloid deposition and tau phosphorylation in clinically characterized aged cats. Neurobiology of Aging 26(5): 749-763).
Sagittal brain slices of 18 month old triple transgenic mice were then studied. These mice have been known to have an extensive amount of senile plaques and neurofibrillary tangles accumulation in several regions of the brain. These regions include the hippocampus, cortex, thalamus, brain stem and other regions. Binding of ^18F-FBM and ^18F-FDDNP to 10 micron thick slices of triple transgenic mice brains is depicted in FIG. 3 along with antibody staining for plaques. More specifically, FIG. 3A depicts antibody staining in the hippocampus and frontal cortex regions, which was also confirmed by thioflavin S staining in an adjacent slice (shown in inset in FIG. 3A). […] Regions of the hippocampus and the frontal cortex (arrows pointing) that contain the plaques are clearly evident.
The binding of ^18F-FBM in the various plaque containing regions was also quantitatively evaluated as a ratio plot shown in FIGS. 4A and 4B. Cerebellum and striatum were used as reference regions. […] The ratio between the frontal cortex regions showing plaques was between 6 and 7 while the hippocampus was between 3.5 and 4.5 as can be taken from FIG. 4A. […] On the other hand, in the case of ^18F-FDDNP, the binding ratios with respect to cerebellum were 1.5 and 2.0 as can be taken from FIG. 4B.

β-amyloid plaques [2] = target: T1, β-amyloid plaques (Homo sapiens, UniProt P05067); assay: In vitro autoradiographic binding of 18F-FPCUR to transgenic mice brain slices; parameters: from tissue; host or cells: sagittal brain sections of Tg 2576 and 3×Tg transgenic mice, 1 to 24 months; species or system transgenic mice (Tg 2576 and 3×Tg)
Protocol: Preliminary binding to rat brain slices of ^18F-fluoropropyl curcumin was carried out at 37° C. in Tris buffer, 50 mM, pH 7.4 for one hour, and further testing of ^18F-FPCUR for binding to β-amyloid plaques was carried out transgenic mice brains. […] Brain slices were pre-incubated for 10 mins in incubation buffer, 0.1 M Tris, 0.1 M NaCl, 0.5% Tween and 0.1% BSA, pH 7.4. Incubation was carried out in 0.1 M Tris, 0.1 M NaCl, 0.5% Tween and 0.1% BSA, pH 7.4 with ^18F-FPCUR (3 μCi/cc) at 37° C. for 1 hr. […] Slices were washed with cold buffer, 2×2 min, rinsed with cold water and air dried. Autoradiograms were obtained of various slices and binding of ^18F-FPCUR was quantitated using Optiquant Image analysis program. […] For evaluating the amount of plaque present in the brain slices, adjacent brain slices were also stained using reported immunostaining methods.

β-amyloid plaques [3] = target: T1, β-amyloid plaques; assay: In vitro autoradiographic binding to Tg2576 mouse hippocampal brain slices; parameters: representative of the amount of Aβ40 and Aβ42 plaque aggregates; from tissue; host or cells: hippocampal brain slices of 24-month old Tg2576 transgenic mice; species or system Tg2576 transgenic mice; conditions: for ratio of binding in plaque to non-plaque areas within the same slice: 10 μm hippocampal slice of 24-month old Tg2576 mouse
Protocol: as §1, §2
Hippocampal slice of 24-month old transgenic mouse (Tg2576, transgenic mice expressing mutant APP) stained for Aβ17-24 using 4G8 immunostaining confirmed presence of β-amyloid plaques found in Alzheimer's disease (FIGS. 1A and 2A depicting 10 μm thick horizontal hippocampal slice of 24-month old transgenic mouse (Tg2576) stained for Aβ17-24 using 4G8 immunostaining. Arrow indicates amyloid plaques.). Adjacent hippocampal slices radiolabeled with ^18F-FBM and ^18F-FDDNP indicated binding to amyloid plaques and corresponded to the 4G8 stain (FIGS. 1B and 2B depicting adjacent hippocampal slice shown in (A) but radiolabeled with high-specific activity ^18F-FBM or ^18F-FDDNP. Arrow indicates binding of ^18F-FBM or ^18F-FDDNP to the amyloid plaques and corresponds to the 4G8 stain.). The specific binding to amyloid plaques was reduced in the presence of 10 μM FDDNP (FIGS. 1C and 2C; FIG. 1C depicts adjacent hippocampal slice shown in (B) radiolabeled with high-specific activity ^18F-FBM in the presence of 10 μM FDDNP. Specific binding to regions containing plaques is reduced; and FIG. 2C depicts adjacent hippocampal slice in cold FDDNP. Specific binding to plaque regions is reduced). Alcohol was used for washing the medium to remove nonspecific binding. The ratio of binding in plaque to non-plaque areas within the same slice for ^18F-FBM was 2.1 while that for ^18F-FDDNP was 1.4; and in the presence of 10 μM FDDNP, these ratios went down to 1.6 and 1.2, respectively.

[4] = Relative lipophilicity from reverse-phase HPLC elution order; assay type: physicochemical; conditions: elutes first
Protocol: For the radiosynthesis step, high specific activity ^18F-fluoride (approximately 100 milliCurie) was produced in the MC-17 cyclotron. Fluorine-18 radioactivity count was measured in a Capintec dose calibrator, while low-level counts were measured out in a well-counter (Cobra Quantum, Packard Instruments Co). Direct radiolabeling of the tosylate precursor was done by using ^18F-fluoride in a solution of 19 mg of Kryptofix 2.2.2 and 0.75 mg potassium carbonate in acetonitrile. The mixture was heated at 85° C. for 20 minutes. After cooling, the mixture was transferred onto a neutral alumina Sep-Pak Cartridge to remove unreacted ^18F-fluoride. Chromatographic separations were preformed on semi-preparative reverse-phase C18 column (length=[…], ID=4.6 mm) using the Gilson high performance liquid chromatography (HPLC) systems. Decay-corrected radiochemical yield was approx. 20%. Retention time of ^18F-FBM was 14 mins compared to 15.7 mins for ^18F-FDDNP (for separation protocol, see e.g., Agdeppa E D et al. (2001) Binding Characteristics of Radiofluorinated 6-Dialkylamino-2-Naphthylethylidene Derivatives as Positron Emission Tomography Imaging Probes for Beta-Amyloid Plaques in Alzheimer's Disease. The Journal of Neuroscience 21, 1-5). ^18F-FBM was collected and prepared for in vitro binding studies. […]

T1 sequence (P05067 672-713 limits assumed): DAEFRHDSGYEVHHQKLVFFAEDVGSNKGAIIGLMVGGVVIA

CC(=C(C#N)C#N)c1ccc2cc(N(C)CCF)ccc2c1 [FDDNP]
effect of competitor on selective binding of 18F-FBM to plaque regions ([1]; 1 μM FDDNP, FIG. 3E): significantly reduced

COc1cc(/C=C/C(=O)CC(=O)/C=C/c2ccc(OCCC[18F])c(OC)c2)ccc1O [18F-FPCUR, ^18F-fluoropropylcurcumin]
binding in the cerebellum (CB) (β-amyloid plaques [2]; FIG. 7): little binding | binding in older transgenic mice (β-amyloid plaques [2]; older transgenic mice): Increased binding

CC(/C=C/c1ccc(N(C)CC[18F])cc1)=C(C#N)C#N [18F-FBM, 4′-[(2-[^18F]fluoroethyl)(methyl)amino]-4-phenyl-3-buten-2-malonitrile]
ratio of binding in plaque to non-plaque areas within the same slice (β-amyloid plaques [3]; in the presence of 10 μM FDDNP): 1.6 | ratio of binding in plaque to non-plaque areas within the same slice (β-amyloid plaques [3]; no competitor): 2.1 | specific binding to amyloid plaque regions compared to 18F-FDDNP (β-amyloid plaques [3]; Tg2576 hippocampal slices): higher specific binding | lipophilicity relative to 18F-FDDNP [4]: less lipophilic | selectivity of binding to the plaques [1]: selective binding

CC(C=Cc1ccc(N(C)CCF)cc1)=C(C#N)C#N [FBM]
effect of competitor on binding of 18F-FDDNP in the hippocampus ([1]; FBM (1 mM), FIG. 3F): reduced

CC(=C(C#N)C#N)c1ccc2cc(N(C)CC[18F])ccc2c1 [18F-FDDNP, 2-(1-{6-[(2-[^18F]fluoroethyl)(methyl)amino]-2-naphtyl}ethylidene)malonitrile]
ratio of binding in plaque to non-plaque areas within the same slice (β-amyloid plaques [3]; in the presence of 10 μM FDDNP): 1.2 | ratio of binding in plaque to non-plaque areas within the same slice (β-amyloid plaques [3]; no competitor): 1.4 | binding ratios with respect to cerebellum ([1]; 18 month old triple transgenic mice, FIG. 4B): 1.5 and 2.0 | selectivity of binding to the plaques [1]: less selective | binding in the cerebellum (no significant amount of plaques) ([1]; triple transgenic mice, FIG. 3D): significant amount of binding

COc1cc(/C=C/C(=O)CC(=O)/C=C/c2ccc(O)c(OC)c2)ccc1O [Curcumin]
displacement of 18F-FPCUR binding by competitor (β-amyloid plaques [2]; 10 μM competitor): displaced

— patent US7737183B2, “β-amyloid and neurofibrillary tangle imaging agents” (The Regents of the University of California, priority 2006, dated 2010)
